Converted amounts (≈) assume the structure as drawn.
Key:
Helicobacter pylori = test: Synergetic effect of levofloxacin and clarithromycin by contactless conductivity (ΔC) monitoring of bacterial growth; type: cell-based; details: indicates growth
Method: Step 3: Involved hardware, containers, tools, consumables and special liquid medium for Helicobacter pylori are sterilized with high temperature steam (121° C.), following by cooling down to room temperature in sterile vessels. The special liquid medium is purchased from Qingdao Hope Bio-Technology Co., Ltd (Qingdao, China).
Step 4: Levofloxacin solutions at concentrations of 0.2, 0.4, 0.6 and 0.8 g/l are prepared with ultrapure sterile water. Clarithromycin solutions at concentrations of 0.2, 0.4, 0.6 and 0.8 g/l are prepared with ethyl alcohol.
Step 5: Eight milliliter sterilized special liquid medium for Helicobacter pylori is transferred into a 10 ml centrifuge tube with a pipette.
Step 6: Twelve well-definite bacterial colonies are transferred from inoculating dish, on which Helicobacter pylori is cultured for 18-20 h, into the 10 ml centrifuge tube to prepare bacterial suspension.
Step 7: One-end-closed disposable PVC tubes in length of 12 cm are used as test tubes (5). […]

Dysentery Bacillus = test: AST assay of levofloxacin by contactless conductivity (ΔC) monitoring of bacterial growth; type: cell-based, Dysentery Bacillus (Enterobacteriaceae strain)
Method: f. Judging the bacterial cells proliferation result based on the ΔCs at the final point. The ΔC is equal to or larger than 10.0 μS/cm, indicating a proliferation; and ΔC is equal to or lower than 1.0 μS/cm, indicating a completely inhibition. The MIC is defined as the lowest concentration of antibiotic resulting in complete inhibition of growth.
Step 1: According to FIG. 1, an automated device with eight test channels is set up. An HtPot50 dry incubator, which is produced by ABSON Scientific Instruments Co. (Hefei, China), is used as a temperature control unit. The used 0.22 μm disposable syringe filter is produced by Zhejiang Aijiren INC (Quzhou, China). The actuator electrode A, pick-up electrode L and pick-up electrode S are all copper cylinders in external diameter of 4.00 mm with 0.95 mm wall thickness. Their lengths are 16 mm, 16 mm and 10 mm, respectively. In every test channel the three electrodes are coaxially fixed with fixing plate. The distance between the pick-up electrode L and pick-up electrode S is 5 mm; and the distance between the pick-up electrode S and the actuator electrode A is 10 mm. All of the electrodes of the eight test channels are linked to an ER815 capacitively coupled contactless conductivity detector (eDAQ Ltd, Australia). The capacitively coupled contactless conductivity detector is controlled with TERA TERM software installed in E470c laptop computer (Legend Holdings Corporation, China).
Step 2: The temperature in the constant temperature chamber (6) is set to be 36° C. with a nonidentity ≤0.5° C. by clicking the button of temperature control.
Step 3: Involved hardware, containers, tools, consumables and special liquid medium for Enterobacteriaceae are sterilized with high temperature steam (121° C.), following by cooling down to room temperature in sterile vessels. In the special liquid medium the concentrations of beef powder, proteose peptone, lactose, No. 3 bile salt, sodium citrate, sodium thiosulfate and ferric citrate are 5.0, 5.0, 10.0, 8.5, 8.5, 8.5 and 1.0 g/L, respectively. […]

| Compound | ΔC at the end of incubation (Helicobacter pylori; clarithromycin alone 0.10, 0.20, 0.30 and 0.40 mg/l (tubes No. 1-4, Step 12)) [μS/cm] | MIC (Dysentery Bacillus; Bacillus, lowest concentration with complete inhibition of growth (ΔC not more than 1.0 μS/cm), 36° C., 21600 s) [µg/mL] | ΔC at the end of incubation (Dysentery Bacillus; levofloxacin 0.25, 0.50 and 1.00 mg/l (tubes No. 1-3), indicates growth) [μS/cm] | ΔC at the end of incubation (Dysentery Bacillus; levofloxacin 2.00, 3.00, 4.00, 5.00 and 6.00 mg/l (tubes No. 4-8), growth completely inhibited) | ΔC at the end of incubation (Helicobacter pylori; levofloxacin alone 0.10, 0.20, 0.30 and 0.40 mg/l (tubes No. 1-4)) [μS/cm] |
| --- | --- | --- | --- | --- | --- |
| CC[C@H]1OC(=O)[C@H](C)[C@@H](O[C@H]2C[C@@](C)(OC)[C@@H](O)[C@H](C)O2)[C@H](C)[C@@H](O[C@@H]2O[C@H](C)C[C@H](N(C)C)[C@H]2O)[C@](C)(OC)C[C@@H](C)C(=O)[C@H](C)[C@@H](O)[C@]1(C)O [clarithromycin] | ≥ 14.0 |  |  |  |  |
| C[C@H]1COc2c(N3CCN(C)CC3)c(F)cc3c(=O)c(C(=O)O)cn1c23 [levofloxacin] |  | 2 (≈ 5.53 µM) | ≥ 18.0 | not more than 1.0 μS/cm | ≥ 22.0 |

— patent US11518973B2, “Device and method for automated antibiotic susceptibility testing of gram-negative bacteria” (Yellow Sea Fisheries Research Institute Chinese Academy Of …, priority 2018, dated 2022)
